In paper PMC12179616, “Novel and efficient synthesis of 5-chloro-6-methoxy-3-(2-((1-(aryl)-1H-1,2,3-triazol-4-yl)methoxy)ethyl)benzo[d]isoxazole derivatives as new α-glucosidase inhibitors” (Biochemistry and Biophysics Reports, 2025):
Values joined by “and” are separate entries in the source; they are usually repeats but may differ in a detail not shown here. Equal values may be shown once.

Columns and labels:
[1] = test system: Bacillus cereus (MTCC2128); assay: Antibacterial activity, agar well diffusion; assay type: cell-based; settings: for zone of inhibition / inhibition in words: 25 μl
Protocol: (§1) The antibacterial activity was determined by using the agar well diffusion method [[50], [51], [52]]. Two bacterial strains were used to evaluate the antibacterial efficacy of the synthesized compounds: one Gram-positive strain, Bacillus cereus (MTCC2128), and one Gram-negative strain, Escherichia coli (MTCC2412). Sterilized Mueller Hinton Broth (MHB) was used to cultivate the bacterial strains, and the mixture was incubated for 18 h at 37 °C. To evaluate the antibacterial activity, the inhibition zone (RIZ) radius encircled each well was determined in millimeters. The experiments were carried out duplicates. The incubation period for the plates was from 72 to 96 h at a temperature of 37 °C. The zone of inhibition was then looked for on the plates.

[2] = test system: Escherichia coli (MTCC2412); assay: Antibacterial activity, agar well diffusion; assay type: cell-based
Protocol: as §1

α-glucosidase = settings: Fig. 1; cited from earlier work

Row | SMILES | zone of inhibition [1] | inhibition in words [1] | other results
1 | COc1cc2onc(CCOCc3cn(-c4cccc(Cl)c4)nn3)c2cc1Cl [Compound 9c, 5-Chloro-3-(2-((1-(3-chlorophenyl)-1H-1,2,3-triazol-4-yl)methoxy)ethyl)-6-methoxybenzo[d]isoxazole] | 0.4 mm | – | –
2 | COc1cc2onc(CCOCc3cn(-c4ccccc4C)nn3)c2cc1Cl [Compound 9f, 5-Chloro-6-methoxy-3-(2-((1-(o-tolyl)-1H-1,2,3-triazol-4-yl)methoxy)ethyl)benzo[d] isoxazole] | 0.5 mm | – | antibacterial activity in words [1]: showed antibacterial activity
3 | COc1cc2onc(CCOCc3cn(-c4ccccc4OC)nn3)c2cc1Cl [Compound 9g, 5-Chloro-6-methoxy-3-(2-((1-(2-methoxyphenyl)-1H-1,2,3-triazol-4-yl)methoxy)ethyl) benzo[d]isoxazole] | – | – | zone of inhibition ([2]; 75 μl): 0.9 mm; zone of inhibition ([2]; 100 μl): 1.2 mm
4 | COc1ccc(-n2cc(COCCc3noc4cc(OC)c(Cl)cc34)nn2)cc1 [Compound 9h, 5-Chloro-6-methoxy-3-(2-((1-(4-methoxyphenyl)-1H-1,2,3-triazol-4-yl)methoxy)ethyl) benzo[d]isoxazole] | 0.5 mm | – | antibacterial activity in words [1]: showed antibacterial activity
5 | COc1cc2onc(CCOCc3cn(-c4ccc(Br)c(F)c4)nn3)c2cc1Cl [Compound 9i, 3-(2-((1-(4-Bromo-3-fluorophenyl)-1H-1,2,3-triazol-4-yl)methoxy)ethyl)-5-chloro-6-methoxybenzo[d]isoxazole] | – | moderate inhibition | –
6 | COc1cc2onc(CCOCc3cn(-c4ccc(F)cc4)nn3)c2cc1Cl [Compound 9j, 5-Chloro-3-(2-((1-(4-fluorophenyl)-1H-1,2,3-triazol-4-yl)methoxy)ethyl)-6-methoxy benzo[d]isoxazole] | – | moderate inhibition | –
7 | COc1cc2onc(CCOCc3cn(-c4ccccc4C(F)(F)F)nn3)c2cc1Cl [Compound 9k, 5-Chloro-6-methoxy-3-(2-((1-(2-(trifluoromethyl)phenyl)-1H-1,2,3-triazol-4-yl)methoxy)ethyl)benzo[d]isoxazole] | – | moderate inhibition | –
8 | COc1cc2onc(CCOCc3cn(-c4ccc(C(F)(F)F)cc4)nn3)c2cc1Cl [Compound 9l, 5-chloro-6-methoxy-3-(2-((1-(4-(trifluoromethyl)phenyl)-1H-1,2,3-triazol-4-yl)methoxy)ethyl)benzo[d]isoxazole] | 0.5 mm and 0.4 mm | – | antibacterial activity in words [1]: showed antibacterial activity
9 | COc1cc2onc(CCOCc3cn(-c4ccc(C)c(C)c4)nn3)c2cc1Cl [Compound 9m, 5-Chloro-3-(2-((1-(3,4-dimethylphenyl)-1H-1,2,3-triazol-4-yl)methoxy)ethyl)-6-methoxy benzo[d]isoxazole] | – | moderate inhibition | –
10 | COc1cc2onc(CCOCc3cn(-c4ccc(Br)cc4)nn3)c2cc1Cl [Compound 9n, 3-(2-((1-(4-Bromophenyl)-1H-1,2,3-triazol-4-yl)methoxy)ethyl)-5-chloro-6-methoxy benzo[d]isoxazole] | – | moderate inhibition | –
11 | COc1cc2onc(CCOCc3cn(-c4ccc(Br)c(C(F)(F)F)c4)nn3)c2cc1Cl [Compound 9o, 3-(2-((1-(4-Bromo-3-(trifluoromethyl)phenyl)-1H-1,2,3-triazol-4-yl)methoxy)ethyl)-5-chloro-6-methoxybenzo[d]isoxazole] | – | moderate inhibition | –
12 | O=C1Nc2ccccc2/C1=N/N=C/c1ccc(OCc2cn(Cc3ccccc3F)nn2)cc1 [III] | – | – | IC50 (α-glucosidase): 16.4 µM
13 | O=c1oc2ccccc2c(O)c1C(c1ccc(OCc2cn(-c3ccccc3Cl)nn2)cc1)c1c(O)c2ccccc2oc1=O [I] | – | – | IC50 (α-glucosidase): 13 µM
